According to PMC9100673, “Acridine Based N-Acylhydrazone Derivatives as Potential Anticancer Agents: Synthesis, Characterization and ctDNA/HSA Spectroscopic Binding Properties” (Molecules, 2022):

Legend:
[1] = system: A549 cells; assay: Colony forming (clonogenic) assay; assay type: cell-based, human; conditions: 48 h treatment, 7 days cultivation; for effect on ability of A549 cells to form new colonies: 25 μM; for reduction of clonogenic ability of A549 cells vs control: 50 μM
Experimental: To assess drug efficacy and prevent treatment failure, it is important to observe whether cancer cells may proliferate during the interval between treatments. The clonogenic assay evaluates the efficacy of new drugs by observation of reduced repopulation of cancer cells and cell survival after treatment. This assay is important to select eligible anticancer drug candidates. The clonogenic survival was analysed after treatment of A549 cells with the compounds 3a and 3c. DMSO (0.5%) was used as solvent control. A549 cells were treated with 3a and 3c in concentrations of 25 and 50 μM for 48 h. The cells were then counted, and 500 viable cells per well were seeded and cultivated for another seven days under standard conditions.
For the colony forming assay, floating and adherent cells were harvested together 48 h after treatment with the studied compounds (25 and 50 µM). The cells were then counted using a Bürker chamber with eosin staining and 500 viable cells per well were seeded in 6-well plates. After seven days of cultivation under standard conditions, the cells in the plates were fixed and stained with 1% methylene blue dye in methanol. Visualized colonies were scanned and counted by Image software, and the results were evaluated as percentages of the untreated control. The results are presented as the average percentage of colonies from three independent experiments.

[2] = system: calf thymus DNA (ctDNA); assay: UV-Vis absorption titration with ctDNA (Benesi-Hildebrand); assay type: binding; conditions: Tris-HCl pH 7.4, room temperature
From the text: Changes in absorbance intensity (either hyperchromic or hypochromic) and a shift in the peak position (hypsochromicity or batochromicity) are typical spectral properties closely related to the interaction of a drug with DNA [60, 61]. […] The absorption spectra of compounds 3a–3d in the presence of increasing concentrations of ctDNA show hypochromicity (16–51%) and a slight hypsochromic shift (Δλ = 1–9 nm, 3a–3d), findings which indicate that the acridine derivatives have interacted with DNA (Table 3). […]
The binding constant Kb of compounds 3a–3d was determined using the modified Benesi-Hildebrand Equation (6):(6) A0/A−A0=εB/εB + DNA+εB/εB + DNA × 1/KbDNA, where A0 and A are the absorbances of the acridine derivatives in the absence and presence of ctDNA; εB and εB + DNA are the molar extinction coefficients of the acridine derivatives individually and in the bound complex, respectively; Kb is the binding constant; and [DNA] is the concentration of ctDNA. […]
UV-Vis absorption spectrum of the drug-ctDNA complexes were measured on a Varian Cary 100 Bio UV-Vis Spectrophotometer. The UV-Vis spectra of free compounds 3a–3d and drug-ctDNA complexes were recorded at the wavelength range of 220 to 600 nm. […]

[3] = molecular target: T1, human serum albumin (HSA) (Homo sapiens, UniProt P02768); assay: HSA competitive site-marker experiment, reverse titration with 3a; assay type: binding; conditions: for KSV / Kb: 25 °C
T1 construct: purchased Sigma (St. Louis, MO, USA)
T1 sequence (P02768 25-609): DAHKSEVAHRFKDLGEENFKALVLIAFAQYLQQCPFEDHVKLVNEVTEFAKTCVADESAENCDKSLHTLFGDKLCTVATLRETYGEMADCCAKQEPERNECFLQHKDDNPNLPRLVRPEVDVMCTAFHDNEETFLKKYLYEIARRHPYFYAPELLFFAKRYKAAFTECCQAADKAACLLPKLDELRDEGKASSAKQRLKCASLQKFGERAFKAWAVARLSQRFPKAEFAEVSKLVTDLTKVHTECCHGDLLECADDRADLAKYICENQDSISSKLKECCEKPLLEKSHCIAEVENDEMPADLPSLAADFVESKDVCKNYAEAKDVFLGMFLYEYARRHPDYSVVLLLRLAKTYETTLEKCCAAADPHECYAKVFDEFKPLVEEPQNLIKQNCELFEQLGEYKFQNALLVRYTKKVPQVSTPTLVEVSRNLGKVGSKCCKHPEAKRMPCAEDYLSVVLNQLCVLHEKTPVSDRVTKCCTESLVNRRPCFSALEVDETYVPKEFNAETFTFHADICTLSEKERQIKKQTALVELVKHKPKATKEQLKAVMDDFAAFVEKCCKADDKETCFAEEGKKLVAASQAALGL
Experimental: Displacement experiments were performed using warfarin and ibuprofen as site marker fluorescence probes, as these agents have been proven to bind with HSA at Sudlow sites I and II, respectively. The fluorescence quenching spectra of HSA:acridine derivatives […] (Figure 5) in the presence of increasing concentrations of specific site markers, warfarin or ibuprofen, were studied.
In addition to the spectra assays, reverse titration studies were also performed. The intensity of the fluorescence of the HSA:site marker complex was recorded at increasing concentrations of acridine derivative 3a, with the obtained results given in Figure S7. […] The obtained data were analysed using Equations (3) and (4). The linear Stern-Volmer dependence and dependence log(F0 − F)/F = log[Q] was used to obtain Stern-Volmer quenching constant values (KSV) and apparent binding constant values (Kb). […] A marked change in the quenching constant was also observed after the addition of ibuprofen, a result which could be partly due to the interaction between derivative 3a and ibuprofen. Similar changes and associated interactions between the marker and the studied ligand have been observed in other studies in which competitive experiments were conducted.
Competitive experiments of HSA were performed using warfarin and ibuprofen as standard site marker ligands. The selected markers for the site I were warfarin, whereas site II was probed using ibuprofen. HSA-acridine derivative (3a–3d) complexes at a concentration ratio of 1:1 ([HSA] = 4 μM) were titrated into specific side markers (0–20 μM). The molar ratio of the HSA:marker complexes were 1:0.5, 1:1, 1:1.5, 1:2, 1:2.5, 1:3, 1:3.5, 1:4, 1:4.5 and 1:5. The reaction mixture of the HSA-acridine derivatives complexes with the side markers were preincubated for 15 min prior to spectral measurements. Additionally, a reverse titration competitive experiment was performed for derivative 3a. The site probe-HSA complex (1:1, [HSA] = 4 μM) was titrated with derivative 3a at a concentration gradient of 0.6–6 μM. In order to determine the binding site of compound 3a, the fluorescence quenching data were analysed using Stern-Volmer and modified Stern-Volmer equations to calculate the value of the Stern-Volmer constants (KSV) and binding constants Kb, and to determine the number of binding sites n. All spectra measurements were performed at 280 nm excitation wavelength and the slits were set at 5 nm for excitation and 10 nm for emission spectra at a range of 290–550 nm and at 25 °C.

[4] = in the presence of ibuprofen (HSA:marker 1:1)
[5] = in the presence of warfarin (HSA:marker 1:1)

| Compound | effect on ability of A549 cells to form new colonies [1] | reduction of clonogenic ability of A549 cells vs control [1] [%] | Kb, binding constant with ctDNA [2] [M⁻¹] | binding site on HSA ([3]; competition with warfarin and ibuprofen) | KSV [3, 4] [M⁻¹] | Kb [3, 4] [M⁻¹] | KSV [3, 5] [M⁻¹] | Kb [3, 5] [M⁻¹] |
| --- | --- | --- | --- | --- | --- | --- | --- | --- |
| O=C(N/N=C/c1cccc2cc3ccccc3nc12)c1ccc(Cl)cc1 [3c, N′-[(E)-Acridin-4-ylmethylidene]-4-chlorobenzohydrazide] | did not significantly reduce | 74 |  |  |  |  |  |  |
| O=C(N/N=C/c1cccc2cc3ccccc3nc12)c1ccc(F)cc1 [3b, N′-[(E)-Acridin-4-ylmethylidene]-4-fluorobenzohydrazide] |  |  | 3180 |  |  |  |  |  |
| O=C(N/N=C/c1cccc2cc3ccccc3nc12)c1ccccc1 [3a, N′-[(E)-(Acridin-4-yl)methylidene]benzohydrazide] | did not significantly reduce | 72 |  | Sudlow site I | 328000 | 667000 | 226000 | 254000 |
